In ChEMBL document CHEMBL3856240, “Structural determinants of diphenethylamines for interaction with the κ opioid receptor: Synthesis, pharmacology and molecular modeling studies” (Bioorg Med Chem Lett, 2016):

How the values were obtained:
[1] = biological target: T1, Kappa-type opioid receptor (Homo sapiens, UniProt P41145); assay: Displacement of [3H]U69,593 from human kappa opioid receptor expressed in CHO cell membranes after 60 mins by liquid scintillation counting
Mu-type opioid receptor = Mu-type opioid receptor (Homo sapiens, UniProt P35372); assay: Displacement of [3H]DAMGO from human mu opioid receptor expressed in CHO cell membranes after 60 mins by liquid scintillation counting
Chain of Mu-type opioid receptor (P35372 whole entry): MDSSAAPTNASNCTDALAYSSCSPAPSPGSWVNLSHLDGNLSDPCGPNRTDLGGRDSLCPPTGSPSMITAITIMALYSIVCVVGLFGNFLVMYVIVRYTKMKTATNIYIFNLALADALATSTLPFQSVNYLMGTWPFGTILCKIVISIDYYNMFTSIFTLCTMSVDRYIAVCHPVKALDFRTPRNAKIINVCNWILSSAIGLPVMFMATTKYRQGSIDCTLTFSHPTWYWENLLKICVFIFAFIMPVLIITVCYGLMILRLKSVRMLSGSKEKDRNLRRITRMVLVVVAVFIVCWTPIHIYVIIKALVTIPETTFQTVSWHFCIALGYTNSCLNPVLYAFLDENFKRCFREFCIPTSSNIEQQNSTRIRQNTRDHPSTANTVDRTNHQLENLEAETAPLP

[2] = biological target: Delta-type opioid receptor (Homo sapiens, UniProt P41143); assay: Displacement of [3H]pCl-DPDPE from human delta opioid receptor expressed in CHO cell membranes after 60 mins by liquid scintillation counting
Chain of Delta-type opioid receptor (P41143 whole entry): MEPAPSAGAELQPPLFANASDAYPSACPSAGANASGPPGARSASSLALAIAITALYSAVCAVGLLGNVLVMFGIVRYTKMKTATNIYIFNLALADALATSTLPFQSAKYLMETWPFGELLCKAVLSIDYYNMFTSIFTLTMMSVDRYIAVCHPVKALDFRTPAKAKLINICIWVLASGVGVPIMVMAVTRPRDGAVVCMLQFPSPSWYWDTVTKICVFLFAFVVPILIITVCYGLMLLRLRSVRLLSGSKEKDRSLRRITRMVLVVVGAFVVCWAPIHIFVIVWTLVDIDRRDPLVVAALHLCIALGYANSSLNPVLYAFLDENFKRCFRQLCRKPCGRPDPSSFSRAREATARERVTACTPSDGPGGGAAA

[3] = biological target: T1, Kappa-type opioid receptor; assay: Agonist activity at human kappa opioid receptor expressed in CHO cell membranes after 60 mins by [35S]GTPgammaS assay
[4] = biological target: T1, Kappa-type opioid receptor; assay: Agonist activity at human kappa opioid receptor expressed in CHO cell membranes after 60 mins by [35S]GTPgammaS assay relative to U69,593; settings: 1 h, read-out: %max
[5] = biological target: T1, Kappa-type opioid receptor; settings: CHO
Description: Antagonist activity at human kappa opioid receptor expressed in CHO cell membranes assessed as inhibition of U69,593 stimulated [35S]GTPgammaS binding after 60 mins

T1 sequence (P41145 whole entry): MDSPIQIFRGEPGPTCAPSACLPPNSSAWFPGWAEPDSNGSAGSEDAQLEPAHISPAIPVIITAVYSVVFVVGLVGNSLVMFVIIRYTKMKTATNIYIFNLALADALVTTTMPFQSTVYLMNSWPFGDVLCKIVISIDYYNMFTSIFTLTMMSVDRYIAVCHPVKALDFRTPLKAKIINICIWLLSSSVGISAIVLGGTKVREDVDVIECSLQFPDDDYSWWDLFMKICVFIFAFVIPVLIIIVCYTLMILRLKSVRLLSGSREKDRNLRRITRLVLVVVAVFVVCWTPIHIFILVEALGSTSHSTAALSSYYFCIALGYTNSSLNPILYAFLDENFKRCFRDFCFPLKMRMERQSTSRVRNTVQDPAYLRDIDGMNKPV

SMILES	Ki [1] [nM]	Ki (Mu-type opioid receptor) [nM]	Ki [2] [nM]	EC50 [3] [nM]	Emax [4] [%]	Ke [5] [nM]
Oc1ccc(CCN(CCc2ccccc2)CC2CCC2)cc1	36.3	731	2130	109	43.8	
Oc1cccc(CCN(CCc2ccccc2)CCc2ccccc2)c1	211	> 10000	> 10000	> 10000		1310
Oc1ccc(CCN(CCc2ccccc2)CC2CC2)cc1	218	1750	2190	> 10000		32.1
